We go through 6 compounds from patent US7696201B2, “Modulators of muscarinic receptors” (Vertex Pharmaceuticals Incorporated, priority 2006, dated 2010).

Common to all, as to type: cell-based
Assay [1] deals with T1, M1 muscarinic receptor (Homo sapiens, UniProt P11229).
T1 construct: expressed in transfected cells; host or cells: CHO (M1-CHO)
T1 sequence (P11229 1-460): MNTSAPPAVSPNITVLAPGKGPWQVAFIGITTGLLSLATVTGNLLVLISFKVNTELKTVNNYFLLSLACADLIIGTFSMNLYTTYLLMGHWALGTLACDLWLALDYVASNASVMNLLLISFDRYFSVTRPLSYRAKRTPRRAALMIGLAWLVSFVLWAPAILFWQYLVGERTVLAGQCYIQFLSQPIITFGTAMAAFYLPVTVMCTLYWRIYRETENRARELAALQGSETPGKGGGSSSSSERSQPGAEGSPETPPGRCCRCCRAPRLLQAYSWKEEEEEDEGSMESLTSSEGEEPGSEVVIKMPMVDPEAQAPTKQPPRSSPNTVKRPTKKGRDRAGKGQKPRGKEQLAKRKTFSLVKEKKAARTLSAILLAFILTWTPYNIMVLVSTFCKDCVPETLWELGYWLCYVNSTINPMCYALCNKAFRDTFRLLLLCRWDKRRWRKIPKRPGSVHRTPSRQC
Nature of the assay: Functional mobilization of intracellular calcium (FLIPR), M1-CHO cells. Conditions: for Emax: 100% efficacy is the maximum response obtained with the Carbachol control; for M1 Activity: CHO cells expressing M1, calcium mobilization. The method, then:
(§1) Functional Mobilization of Intracellular Calcium to Determine Muscarinic Receptor Activity:
(§2) CHO cells expressing muscarinic receptors (M1 to M5) are grown as monolayers in tissue culture flasks at 37° C. in a humidified atmosphere containing 5% CO2 and passaged every 3-5 days. The growth media is Dulbecco's modified eagles medium (DMEM, Gibco Cat# 12430-054), containing 25 mM Hepes and supplemented with Fetal Bovine Serum (Hyclone, cat# SH30071.03), 0.1 mM of MEM non-essential amino acids (GIBCO, Cat# 11140-050), 1 mM MEM Sodium Pyruvate (GIBCO Cat# 11360-070) and 100 units/ml of Penicillin G and 100 μg/ml of Streptomycin (GIBCO Cat# 15140-122). The recombinant muscarinic receptor cell lines are grown under antibiotic pressure with media containing 25 μg/ml zeocin and 500 μg/ml G418 (M1-CHO), 4 μg/ml puromycin, 50 μg/ml zeocin and 2.5 μg/ml blasticidin (M2 and M4-CHO) or 50 μg/ml zeocin and 4 μg/ml puromycin (M3 and M5-CHO).
(§3) Cells are harvested at 80-90% confluence using Versene (GIBCO Cat# 15040-066), collected by centrifugation and seeded 18-24 hours prior to running the calcium assay at a density of 5,000-10,000 cells/well in […], clear-bottomed 384-well plates (BD Biocoat, poly-D-lysine, Cat#356663). The day of the experiment, the cells are washed with a plate washer (Bioteck Instruments, ELX 405) using Bath 1 buffer (140-mM NaCl, 4.5-mM KCl, 2-mM CaCl2, 1-mM MgCl2, 10-mM Hepes-Na, 10-mM Glucose, pH 7.4, with NaOH) containing 1 mM Probenecid. Next, the calcium dye Fluo-3 (25 μl/well of Fluo-3 AM at 4 μM, Molecular Probes F-1241, in Bath 1 buffer containing 1 mM Probenecid) is added to the 25 μl of Bath 1 remaining in each well after the plate wash and the dye is loaded at 37° C. in the tissue culture incubator for 60-90 min. The fluorescent dye is removed using the plate washer with Bath 1 containing 1 mM Probenecid, leaving 25 μl/well of this solution after the wash. Alternatively, cells can be loaded with the calcium indicator from Molecular Devices (Calcium 3 Assay Reagents, Cat # R7181) adding 5 μl of a 5× solution dye in Bath 1 containing 1 mM Probenecid (10 ml per dye flask cat# R7182 to generate a solution 20×) to 20 μl of the same buffer. After loading for 60 min, the experiment can be run without having to remove the dye.
(§4) Compounds are prepared at a 2× fold concentration in a 96-well plate (round bottom, Costar Corning cat# 3656), by reconstituting the pre-spotted compounds in bath 1 containing 1 mM probenecid. The final concentration DMSO is 0.5%, and the amount of DMSO is normalized across the assay plate. To determine an agonist action of the compounds on muscarinic receptors, the reconstituted compounds are added (25 μl compound/well) to the cell assay plate (containing 25 μl/well) using the multi-channel robotic system of the FLIPR 3 Instrument (Molecular Devices, Sunnyvale, Calif.). To determine a functional inhibitory action of the compounds on muscarinic receptors, the reconstituted compounds are added (25 μl compound/well) to the assay plate and pre-incubated for 15 min prior to adding 25 μl of Carbachol at 3× the EC80 for each muscarinic subtype. Alternatively, the compounds can be co-applied simultaneously with the agonist. In both assay modes, the fluorescence is recorded for 60 sec (excitation wavelength is […] and emission wavelength 540 nm) using the FLIPR 3 instrument.
(§5) The potency, efficacy and selectivity of the muscarinic compounds were evaluated by screening the compound activity across the whole family (M1 to M5 cells). Compounds were also screened for activity on other proteins such as other GPCRs and ion channels to determine selectivity on M4 receptors.
(§6) Examples of activities and efficacies of the muscarinic compounds of formulae (I, Ia, Ib, Ic, and Id) on modulating M1 and M4 receptors are shown below in Table 3. […]

The target of assay [2] is T2, M2 muscarinic receptor (Homo sapiens, UniProt P08172).
T2 construct: expressed in transfected cells; host or cells: CHO (M2-CHO)
T2 sequence (P08172 1-466): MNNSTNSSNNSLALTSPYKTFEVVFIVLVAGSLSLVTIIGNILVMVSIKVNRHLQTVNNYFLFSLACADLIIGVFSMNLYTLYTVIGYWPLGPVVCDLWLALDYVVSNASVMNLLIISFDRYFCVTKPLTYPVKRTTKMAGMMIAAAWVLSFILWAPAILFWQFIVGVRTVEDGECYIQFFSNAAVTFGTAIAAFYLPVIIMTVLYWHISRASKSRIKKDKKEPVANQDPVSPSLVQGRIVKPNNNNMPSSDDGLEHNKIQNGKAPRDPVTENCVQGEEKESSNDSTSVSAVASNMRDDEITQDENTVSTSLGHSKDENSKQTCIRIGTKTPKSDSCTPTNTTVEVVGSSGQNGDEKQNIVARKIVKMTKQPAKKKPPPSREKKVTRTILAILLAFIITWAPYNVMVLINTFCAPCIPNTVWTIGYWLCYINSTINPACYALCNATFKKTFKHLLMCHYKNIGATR
Nature of the assay: Functional mobilization of intracellular calcium (FLIPR), M2-CHO cells. Conditions: for Emax: 100% efficacy is the maximum response obtained with the Carbachol control; for M2 Activity: CHO cells expressing M2, calcium mobilization. As for the experimental part:
as §1, §2, §3, §4, §5, §6
In general terms: A change in cytosolic calcium serves as a functional read-out for many receptors and channels.

The target in assay [3] is T3, M3 muscarinic receptor (Homo sapiens, UniProt P20309).
T3 construct: expressed in transfected cells; host or cells: CHO (M3-CHO)
In words: Functional mobilization of intracellular calcium (FLIPR), M3-CHO cells. To be noted: for Emax: 100% efficacy is the maximum response obtained with the Carbachol control; for M3 Activity: CHO cells expressing M3, calcium mobilization. As for the experimental part:
as §1, §2, §3, §4, §5, §6

In assay [4] the target is T4, M4 muscarinic receptor (Homo sapiens, UniProt P08173).
T4 construct: expressed in transfected cells; host or cells: CHO (M4-CHO)
T4 sequence (P08173 1-479): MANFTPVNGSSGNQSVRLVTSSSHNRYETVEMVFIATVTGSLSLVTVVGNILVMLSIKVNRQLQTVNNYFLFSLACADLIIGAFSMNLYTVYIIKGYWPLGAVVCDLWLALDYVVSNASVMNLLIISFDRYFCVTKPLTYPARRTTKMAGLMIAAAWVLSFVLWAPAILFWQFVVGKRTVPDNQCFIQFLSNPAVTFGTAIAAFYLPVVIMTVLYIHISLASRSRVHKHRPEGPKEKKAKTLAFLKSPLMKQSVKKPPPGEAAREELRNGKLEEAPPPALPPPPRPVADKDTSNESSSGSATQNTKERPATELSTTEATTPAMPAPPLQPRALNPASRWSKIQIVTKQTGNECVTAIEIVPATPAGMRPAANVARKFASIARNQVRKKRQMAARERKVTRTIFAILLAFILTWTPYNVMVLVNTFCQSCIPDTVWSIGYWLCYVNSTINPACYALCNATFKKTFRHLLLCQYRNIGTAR
Nature of the assay: Functional mobilization of intracellular calcium (FLIPR), M4-CHO cells. To be noted: for Emax: 100% efficacy is the maximum response obtained with the Carbachol control; for M4 Activity: CHO cells expressing M4, calcium mobilization. The method, then: as §1, §2, §3, §4, §5, §6

T3 sequence (P20309 whole entry): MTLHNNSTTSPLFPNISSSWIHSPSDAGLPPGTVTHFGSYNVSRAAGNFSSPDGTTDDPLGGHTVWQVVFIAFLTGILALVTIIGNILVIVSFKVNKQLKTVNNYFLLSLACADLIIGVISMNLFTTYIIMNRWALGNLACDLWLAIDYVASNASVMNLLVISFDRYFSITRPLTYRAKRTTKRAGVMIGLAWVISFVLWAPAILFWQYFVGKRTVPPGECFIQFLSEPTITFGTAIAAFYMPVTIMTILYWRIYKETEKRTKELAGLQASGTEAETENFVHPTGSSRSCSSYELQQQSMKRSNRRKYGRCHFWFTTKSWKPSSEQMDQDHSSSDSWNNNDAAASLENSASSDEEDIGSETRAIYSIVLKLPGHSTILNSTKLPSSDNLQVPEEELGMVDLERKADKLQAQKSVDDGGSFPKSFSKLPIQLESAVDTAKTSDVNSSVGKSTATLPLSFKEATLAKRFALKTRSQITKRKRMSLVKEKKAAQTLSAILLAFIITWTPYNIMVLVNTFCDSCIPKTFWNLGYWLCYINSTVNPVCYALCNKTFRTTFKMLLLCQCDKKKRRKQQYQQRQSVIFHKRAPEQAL

Broadly, the Emax is the maximal effect, on the per cent scale that the assay sets. In the case of `CCOC(=O)N1CCC(N2CCC3(CC2)OC(=O)Nc2ccccc23)CC1` [Compound 62], in assay [1], the Emax was in the range of 25 to 100% and the “M1 Activity” value was “+++ (activity was measured to be less than 2.0 μM)”. Further, in assay [2], the Emax was 25 to 100% and the “M2 Activity” value was “+++ (activity was measured to be less than 2.0 μM)”. Also, in assay [3], the Emax was 25 to 100% and the “M3 Activity” value is “+++ (activity was measured to be less than 2.0 μM)”. For the same compound, in assay [4], the Emax lay in the range of 25 to 100% and the “M4 Activity” value is on record as “+++ (activity was measured to be less than 2.0 μM)”.
Take `O=C1CCC(N2CCC3(CC2)OC(=O)Nc2ccccc23)CC1` [Compound 64, 1′-(4-oxocyclohexyl)spiro[benzo[d][1,3]oxazine-4,4′-piperidin]-2(1H)-one]: in assay [1], the Emax was 25 to 100% and the “M1 Activity” value is listed as “++ (activity was measured to be from 2.0 μM to 5.0 μM)”. Also, in assay [2], the Emax fell in the range of 25 to 100% and the “M2 Activity” value is given as “+ (activity was measured to be greater than 5.0 μM)”. Besides, in assay [3], the Emax is less than 25% and the “M3 Activity” value is on record as “+ (activity was measured to be greater than 5.0 μM)”. In addition, in assay [4], the Emax fell in the range of 25 to 100% and the “M4 Activity” value is “++ (activity was measured to be from 2.0 μM to 5.0 μM)”.
Turning to `CN1C(=O)OC2(CCN(C3CCCCCC3)CC2)c2ccccc21` [Compound 65, 1′-cycloheptyl-1-methylspiro[benzo[d][1,3]oxazine-4,4′-piperidin]-2(1H)-one], in assay [1], the Emax was less than 25% and the “M1 Activity” value is “+ (activity was measured to be greater than 5.0 μM)”. In assay [2], the Emax is less than 25% and the “M2 Activity” value is given as “+ (activity was measured to be greater than 5.0 μM)”. Further, in assay [3], the Emax is less than 25% and the “M3 Activity” value is reported as “+ (activity was measured to be greater than 5.0 μM)”. Moreover, in assay [4], the Emax was in the range of 25 to 100% and the “M4 Activity” value is “+++ (activity was measured to be less than 2.0 μM)”.
Consider `O=C1Nc2ccccc2C2(CCN(C3CC4CCC(C4)C3)CC2)O1` (stereo not drawn) [Compound 67, 1′-(bicyclo[3.2.1]octan-3-yl)spiro[benzo[d][1,3]oxazine-4,4′-piperidin]-2(1H)-one], for which, in assay [1], the Emax lay within 25 to 100% and the “M1 Activity” value is given as “+++ (activity was measured to be less than 2.0 μM)”. Moreover, in assay [2], the Emax is 25 to 100% and the “M2 Activity” value was “+++ (activity was measured to be less than 2.0 μM)”. Also, in assay [3], the Emax fell in the range of 25 to 100% and the “M3 Activity” value is recorded as “+ (activity was measured to be greater than 5.0 μM)”. For the same compound, in assay [4], the Emax was in the range of 25 to 100% and the “M4 Activity” value is “+++ (activity was measured to be less than 2.0 μM)”.
Regarding `O=C1Nc2ccccc2C2(CCN(C3CCN(c4cnccn4)CC3)CC2)O1` [Compound 74, 1′-(1-(pyrazin-2-yl)piperidin-4-yl)spiro[benzo[d][1,3]oxazine-4,4′piperidin]-2(1H)-one], in assay [1], the Emax is more than 100% and the “M1 Activity” value is recorded as “+++ (activity was measured to be less than 2.0 μM)”. In assay [2], the Emax lay within 25 to 100% and the “M2 Activity” value is given as “+++ (activity was measured to be less than 2.0 μM)”. Further, in assay [3], the Emax fell in the range of 25 to 100% and the “M3 Activity” value is given as “+ (activity was measured to be greater than 5.0 μM)”. Also, in assay [4], the Emax was 25 to 100% and the “M4 Activity” value is “+++ (activity was measured to be less than 2.0 μM)”.
For `CC(C)CCN1CCC2(CC1)OC(=O)Nc1ccccc12` [Compound 76, 1′-isopentylspiro[benzo[d][1,3]oxazine-4,4′-piperidin]-2(1H)-one], in assay [1], the Emax fell in the range of 25 to 100% and the “M1 Activity” value was “+++ (activity was measured to be less than 2.0 μM)”. Also, in assay [2], the Emax was in the range of 25 to 100% and the “M2 Activity” value is reported as “+ (activity was measured to be greater than 5.0 μM)”. Moreover, in assay [3], the Emax was less than 25% and the “M3 Activity” value is “+ (activity was measured to be greater than 5.0 μM)”. In assay [4], the Emax was 25 to 100% and the “M4 Activity” value was “+++ (activity was measured to be less than 2.0 μM)”.
